Each compound was assayed against (recombinant) catalytic domain of human Bub1 (amino acids 704-1085) (Homo sapiens (Human), UniProt O43683) (assay: Bub1 kinase assay (TR-FRET)). Conditions: ATP 10 μM final, peptide substrate 1 μM final, 60 min at 22° C., read-out: Biological Assay: Bub1 kinase assay median IC50.
Format: biochemical
Method in brief: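 Readout was TR-FRET between a Eu-labeled antibody complex recognizing phosphoserine and streptavidin-XL665 on the biotinylated peptide, after EDTA stop and 1 h at 22° C. The kinase reaction ran for 60 min at 22° C. Values are means or medians of repeat tests, from 4-parameter fits normalized to enzyme-free and inhibitor-free controls.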

(recombinant) catalytic domain of human Bub1 (amino acids 704-1085), sequence (O43683 704-1085): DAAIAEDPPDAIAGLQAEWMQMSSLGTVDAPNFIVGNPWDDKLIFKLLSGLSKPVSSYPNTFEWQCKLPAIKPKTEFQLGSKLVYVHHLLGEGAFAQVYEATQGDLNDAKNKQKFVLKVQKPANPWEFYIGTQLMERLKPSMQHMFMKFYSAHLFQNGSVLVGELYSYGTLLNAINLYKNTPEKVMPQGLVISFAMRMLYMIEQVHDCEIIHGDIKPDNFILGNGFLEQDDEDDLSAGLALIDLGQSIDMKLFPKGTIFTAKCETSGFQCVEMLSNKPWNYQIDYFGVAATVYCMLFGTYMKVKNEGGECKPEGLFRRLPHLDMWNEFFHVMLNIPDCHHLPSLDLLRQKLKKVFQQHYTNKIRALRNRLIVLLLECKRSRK

IC50 | Compound
43.9 nM | O=C(Cc1ccccc1)Nc1cc(-c2[nH]c3c(c2Nc2ccccc2)C(=O)CCC3)ccn1 [Example 233, N-{4-[4-oxo-3-(phenylamino)-4,5,6,7-tetrahydro-1H-indol-2-yl]pyridin-2-yl}-2-phenylacetamide]
61.6 nM | O=C(CCc1ccccc1)Nc1cc(-c2[nH]c3c(c2Nc2ccccc2)C(=O)CCC3)ccn1 [Example 235, N-{4-[4-oxo-3-(phenylamino)-4,5,6,7-tetrahydro-1H-indol-2-yl]pyridin-2-yl}-3-phenylpropanamide]
8.26 nM | O=C(CCCc1ccccc1)Nc1cc(-c2[nH]c3c(c2Nc2ccccc2)C(=O)CCC3)ccn1 [Example 236, N-{4-[4-oxo-3-(phenylamino)-4,5,6,7-tetrahydro-1H-indol-2-yl]pyridin-2-yl}-4-phenylbutanamide]
13.2 nM | CC1CC1C(=O)Nc1cc(-c2[nH]c3c(c2Nc2ccccc2)C(=O)CCC3)ccn1 (centres unmarked) [Example 237, 2-methyl-N-{4-[4-oxo-3-(phenylamino)-4,5,6,7-tetrahydro-1H-indol-2-yl]pyridin-2-yl}cyclopropanecarboxamide]
17.7 nM | O=C(Nc1cc(-c2[nH]c3c(c2Nc2ccccc2)C(=O)CCC3)ccn1)c1ccccc1 [Example 238, N-{4-[4-oxo-3-(phenylamino)-4,5,6,7-tetrahydro-1H-indol-2-yl]pyridin-2-yl}benzamide]
45.9 nM | O=C1CCCc2[nH]c(-c3ccnc(NC(=O)C4CC4c4ccccc4)c3)c(Nc3ccccc3)c21 (centres unmarked) [Example 239, N-{4-[4-oxo-3-(phenylamino)-4,5,6,7-tetrahydro-1H-indol-2-yl]pyridin-2-yl}-2-phenylcyclopropanecarboxamide]
6740 nM | CC(=O)N(C)c1cc(-c2[nH]c3c(c2Nc2ccccc2)C(=O)CC(C)(C)C3)ccn1 [Example 240, N-{4-[6,6-dimethyl-4-oxo-3-(phenylamino)-4,5,6,7-tetrahydro-1H-indol-2-yl]pyridin-2-yl}-N-methylacetamide]
40.7 nM | CC(F)C(=O)Nc1cc(-c2[nH]c3c(c2Nc2ccccc2)C(=O)CCC3)ccn1 (centres unmarked) [Example 241, 2-fluoro-N-{4-[4-oxo-3-(phenylamino)-4,5,6,7-tetrahydro-1H-indol-2-yl]pyridin-2-yl}propanamide]
182 nM | CC(C)(F)C(=O)Nc1cc(-c2[nH]c3c(c2Nc2ccccc2)C(=O)CCC3)ccn1 [Example 242, 2-fluoro-2-methyl-N-{4-[4-oxo-3-(phenylamino)-4,5,6,7-tetrahydro-1H-indol-2-yl]pyridin-2-yl}propanamide]
255 nM | CC(C)(CO)C(=O)Nc1cc(-c2[nH]c3c(c2Nc2ccccc2)C(=O)CCC3)ccn1 [Example 243, 3-hydroxy-2,2-dimethyl-N-{4-[4-oxo-3-(phenylamino)-4,5,6,7-tetrahydro-1H-indol-2-yl]pyridin-2-yl}propanamide]
31 nM | CSCC(=O)Nc1cc(-c2[nH]c3c(c2Nc2ccccc2)C(=O)CCC3)ccn1 [Example 244, 2-(methylsulfanyl)-N-{4-[4-oxo-3-(phenylamino)-4,5,6,7-tetrahydro-1H-indol-2-yl]pyridin-2-yl}acetamide]
84.4 nM | CC(C)(C#N)C(=O)Nc1cc(-c2[nH]c3c(c2Nc2ccccc2)C(=O)CCC3)ccn1 [Example 245, 2-cyano-2-methyl-N-{4-[4-oxo-3-(phenylamino)-4,5,6,7-tetrahydro-1H-indol-2-yl]pyridin-2-yl}propanamide]
60.2 nM | N#CC1(C(=O)Nc2cc(-c3[nH]c4c(c3Nc3ccccc3)C(=O)CCC4)ccn2)CC1 [Example 246, 1-cyano-N-{4-[4-oxo-3-(phenylamino)-4,5,6,7-tetrahydro-1H-indol-2-yl]pyridin-2-yl}cyclopropanecarboxamide]
81.3 nM | CC(C(=O)Nc1cc(-c2[nH]c3c(c2Nc2ccccc2)C(=O)CCC3)ccn1)C(F)(F)F (centres unmarked) [Example 247, 3,3,3-trifluoro-2-methyl-N-{4-[4-oxo-3-(phenylamino)-4,5,6,7-tetrahydro-1H-indol-2-yl]pyridin-2-yl}propanamide]
28.2 nM | CS(=O)(=O)CC(=O)Nc1cc(-c2[nH]c3c(c2Nc2ccccc2)C(=O)CCC3)ccn1 [Example 248, 2-(methylsulfonyl)-N-{4-[4-oxo-3-(phenylamino)-4,5,6,7-tetrahydro-1H-indol-2-yl]pyridin-2-yl}acetamide]
10 nM | O=C1CCCc2[nH]c(-c3ccnc(NC(=O)[C@H]4C[C@@H]4F)c3)c(Nc3ccccc3)c21 [Example 250, (R,S/S,R)-2-fluoro-N-{4-[4-oxo-3-(phenylamino)-4,5,6,7-tetrahydro-1H-indol-2-yl]pyridin-2-yl}cyclopropanecarboxamide]
10.5 nM | O=C1CCCc2[nH]c(-c3ccnc(NC(=O)[C@H]4C[C@@H]4F)c3)c(Nc3ccccc3)c21 [Example 251, (R,S/S,R)-2-fluoro-N-{4-[4-oxo-3-(phenylamino)-4,5,6,7-tetrahydro-1H-indol-2-yl]pyridin-2-yl}cyclopropanecarboxamide]
23.3 nM | O=C1CCCc2[nH]c(-c3ccnc(NC(=O)[C@H]4C[C@H]4F)c3)c(Nc3ccccc3)c21 [Example 253, (1R,2R)-2-fluoro-N-{4-[4-oxo-3-(phenylamino)-4,5,6,7-tetrahydro-1H-indol-2-yl]pyridin-2-yl}cyclopropanecarboxamide]

IC50 | Compound
6.49 nM | CC1(C)CC(=O)c2c([nH]c(-c3ccnc(NC(=O)[C@@H]4C[C@@H]4F)c3)c2Nc2ccccc2)C1 [Example 258]
10.1 nM | CC1(C)CC(=O)c2c([nH]c(-c3ccnc(NC(=O)[C@H]4C[C@H]4F)c3)c2Nc2ccccc2)C1 [Example 259]
41.7 nM | O=C1CCCc2[nH]c(-c3ccnc(NC(=O)C4(F)CC4)c3)c(Nc3ccccc3)c21 [Example 261, 1-fluoro-N-{4-[4-oxo-3-(phenylamino)-4,5,6,7-tetrahydro-1H-indol-2-yl]pyridin-2-yl}cyclopropanecarboxamide]
140 nM | CC(C)(CF)C(=O)Nc1cc(-c2[nH]c3c(c2Nc2ccccc2)C(=O)CCC3)ccn1 [Example 263, 3-fluoro-2,2-dimethyl-N-{4-[4-oxo-3-(phenylamino)-4,5,6,7-tetrahydro-1H-indol-2-yl]pyridin-2-yl}propanamide]
13.9 nM | O=C(Nc1cc(-c2[nH]c3c(c2Nc2ccccc2)C(=O)CCC3)ccn1)c1ccccc1F [Example 264, 2-fluoro-N-{4-[4-oxo-3-(phenylamino)-4,5,6,7-tetrahydro-1H-indol-2-yl]pyridin-2-yl}benzamide]
19.1 nM | O=C(Nc1cc(-c2[nH]c3c(c2Nc2ccccc2)C(=O)CCC3)ccn1)c1cccc(F)c1 [Example 265, 3-fluoro-N-{4-[4-oxo-3-(phenylamino)-4,5,6,7-tetrahydro-1H-indol-2-yl]pyridin-2-yl}benzamide]
13.8 nM | O=C(Nc1cc(-c2[nH]c3c(c2Nc2ccccc2)C(=O)CCC3)ccn1)c1ccc(F)cc1 [Example 266, 4-fluoro-N-{4-[4-oxo-3-(phenylamino)-4,5,6,7-tetrahydro-1H-indol-2-yl]pyridin-2-yl}benzamide]
9.55 nM | CC1(C)CC(=O)c2c([nH]c(-c3ccnc(NC(=O)c4ccc(F)cc4)c3)c2Nc2ccccc2)C1 [Example 267, N-{4-[6,6-dimethyl-4-oxo-3-(phenylamino)-4,5,6,7-tetrahydro-1H-indol-2-yl]pyridin-2-yl}-4-fluorobenzamide]
22.7 nM | O=C(Nc1cc(-c2[nH]c3c(c2Nc2ccccc2)C(=O)CCC3)ccn1)c1ccncc1 [Example 268, N-{4-[4-oxo-3-(phenylamino)-4,5,6,7-tetrahydro-1H-indol-2-yl]pyridin-2-yl}pyridine-4-carboxamide]
29.4 nM | O=C(Nc1cc(-c2[nH]c3c(c2Nc2ccccc2)C(=O)CCC3)ccn1)c1ccccn1 [Example 269, N-{4-[4-oxo-3-(phenylamino)-4,5,6,7-tetrahydro-1H-indol-2-yl]pyridin-2-yl}pyridine-2-carboxamide]
29.4 nM | O=C(Nc1cc(-c2[nH]c3c(c2Nc2ccccc2)C(=O)CCC3)ccn1)c1nccs1 [Example 270, N-{4-[4-oxo-3-(phenylamino)-4,5,6,7-tetrahydro-1H-indol-2-yl]pyridin-2-yl}-1,3-thiazole-2-carboxamide]
7.64 nM | O=C(Nc1cc(-c2[nH]c3c(c2Nc2ccccc2)C(=O)CCC3)ccn1)c1cscn1 [Example 271, N-{4-[4-oxo-3-(phenylamino)-4,5,6,7-tetrahydro-1H-indol-2-yl]pyridin-2-yl}-1,3-thiazole-4-carboxamide]
6.63 nM | CC1(C)CC(=O)c2c([nH]c(-c3ccnc(NC(=O)c4cscn4)c3)c2Nc2ccccc2)C1 [Example 272, N-{4-[6,6-dimethyl-4-oxo-3-(phenylamino)-4,5,6,7-tetrahydro-1H-indol-2-yl]pyridin-2-yl}-1,3-thiazole-4-carboxamide]
7.66 nM | O=C(Nc1cc(-c2[nH]c3c(c2Nc2ccccc2)C(=O)CCC3)ccn1)c1cncs1 [Example 273, N-{4-[4-oxo-3-(phenylamino)-4,5,6,7-tetrahydro-1H-indol-2-yl]pyridin-2-yl}-1,3-thiazole-5-carboxamide]
48.2 nM | O=C(Nc1cc(-c2[nH]c3c(c2Nc2ccccc2)C(=O)CCC3)ccn1)c1ncc[nH]1 [Example 274, N-{4-[4-oxo-3-(phenylamino)-4,5,6,7-tetrahydro-1H-indol-2-yl]pyridin-2-yl}-1H-imidazole-2-carboxamide]
12.7 nM | O=C(Nc1cc(-c2[nH]c3c(c2Nc2ccccc2)C(=O)CCC3)ccn1)c1ccn[nH]1 [Example 275, N-{4-[4-oxo-3-(phenylamino)-4,5,6,7-tetrahydro-1H-indol-2-yl]pyridin-2-yl}-1H-pyrazole-5-carboxamide]
18.4 nM | O=C(Nc1cc(-c2[nH]c3c(c2Nc2ccccc2)C(=O)CCC3)ccn1)c1ccsn1 [Example 276, N-{4-[4-oxo-3-(phenylamino)-4,5,6,7-tetrahydro-1H-indol-2-yl]pyridin-2-yl}-1,2-thiazole-3-carboxamide]

— patent US10428044B2, “3-amino-1,5,6,7-tetrahydro-4H-indol-4-ones” (Bayer Pharma Aktiengesellschaft, priority 2014, dated 2019)
